Experimental data taken from US20070190004A1, “Substances with a probiotic action used in deodorants” (priority 2004, published 2007).

Experiments:
[1] = test system: Staphylococcus epidermidis; test: Growth of S. epidermidis in LB liquid culture with test substance, OD (600 nm) versus control; assay type: cell-based; conditions: for Growth effect, promoting or inhibiting factor compared to the control: S. epidermidis
Procedure: (§1) From liquid precultures of S. epidermidis and S. hominis, cultures in LB medium with an optical density OD (600 nm) of 0.05 were inoculated. In parallel to the controls (without the addition of cells or extract), in each case 2 cultures were treated with 1% plant extract and the growth was documented over 30 h by reference to the OD measurement. After 30 h, the difference in the OD of the cultures with extract additive to the corresponding controls (without extract additive, corrected by the value without cells) was determined.
(§2) From liquid precultures of S. epidermidis and S. hominis, cultures in LB medium with an optical density OD (600 nm) of 0.05 were inoculated. In parallel to the controls (without the addition of cells or extract), in each case 2 cultures were treated with 1% plant extract and the growth was documented over 30 h by reference to the OD measurement. After 30 h, the difference in the OD of the cultures with extract additive to the corresponding controls (without extract additive, corrected by the value without cells) was determined. Various hibiscus extracts from Cosmetochem were used, namely “herbasol extract unpreserved carcade in 80% PG,” “carcade (hibiscus) herbasec” and “carcade (hibiscus) herbasol extract oil-soluble.”
as §1, with “myristate),” for “extract),”, “myristate derivative” for “plant extract”, “8” for “30”, “myristate” for “extract”
(§3) From liquid precultures of S. epidermidis and S. hominis, cultures in LB medium with an optical density OD (600 nm) of 0.05 were inoculated. In parallel to the controls [without the addition of cells or ethylhexyl glycerol (Sensiva SC 50, Schülke&Mayr)], in each case 2 cultures were treated with 0.1% ethylhexyl glycerol and the growth was documented over 24 h by reference to the OD measurement. After 4 h, 8 h and 24 h, the difference in the OD of the cultures with ethylhexyl glycerol to the corresponding controls (without extract additive, corrected by the value without cells) was determined.

[2] = test system: Staphylococcus hominis; test: Growth of S. hominis in LB liquid culture with test substance, OD (600 nm) versus control; assay type: cell-based; conditions: for Growth effect, promoting or inhibiting factor compared to the control: S. hominis
Procedure: as §1, §2
as §1, with “myristate),” for “extract),”, “myristate derivative” for “plant extract”, “8” for “30”, “myristate” for “extract”
as §3

[3] = 1% myristate derivative, after 8 h, LB medium, OD 600 nm

| SMILES | Effect on growth of S. epidermidis (in words) ([1]; 1% myristate derivative, 8 h) | Growth effect, promoting or inhibiting factor compared to the control [1, 3] | Effect on growth of S. hominis (in words) ([2]; 1% myristate derivative, 8 h) | Growth effect, promoting or inhibiting factor compared to the control [2, 3] | Growth effect, promoting or inhibiting factor compared to the control ([1]; 0.1% ethylhexyl glycerol, 4 h) | Growth effect, promoting or inhibiting factor compared to the control ([1]; 0.1% ethylhexyl glycerol, 8 h) | Growth effect, promoting or inhibiting factor compared to the control ([1]; 0.1% ethylhexyl glycerol, 24 h) | Effect on growth of S. hominis (in words) ([2]; 0.1% ethylhexyl glycerol, up to 24 h) | Growth effect, promoting or inhibiting factor compared to the control ([2]; 0.1% ethylhexyl glycerol, 4 h) | Growth effect, promoting or inhibiting factor compared to the control ([2]; 0.1% ethylhexyl glycerol, 8 h) | Growth effect, promoting or inhibiting factor compared to the control ([2]; 0.1% ethylhexyl glycerol, 24 h) |
| --- | --- | --- | --- | --- | --- | --- | --- | --- | --- | --- | --- |
| CCCCCCCCCCCCCC(=O)OCC [Ethyl myristate, ethyl myristate] | moderate promotion of S. epidermidis | 1.44 | inhibiting action on S. hominis | 0.22 | – | – | – | – | – | – | – |
| CCCCCCCCCCCCCC(=O)OC(C)C [Isopropyl myristate, isopropyl myristate] | moderate promotion of S. epidermidis | 1.24 | inhibiting action on S. hominis | 0.50 | – | – | – | – | – | – | – |
| CCCCC(CC)COCC(O)CO (stereo not drawn) [ethylhexyl glycerol, 1-(2-Ethylhexyl) glycerol ether] | – | – | – | – | 1.06 | 1.06 | 1.10 | inhibits S. hominis | 0.87 | 0.92 | 0.76 |
